Assay results as given in PMC11281344 (Viruses, 2024).
Read-outs that look alike come from different tables or passages of the source.

What was measured:
[1] = test system: FMDV serotype A [A/TAI/NP05/2017 (NP05)]; assay: microbe, parasite or virus in culture; format: cell-based, Foot-and-mouth disease virus; details: for EC50: read-out: Antiviral Activity (EC50) CPE (Crystal Violet)
[2] = test system: FMDV serotype A [A/TAI/NP05/2017 (NP05)]; assay: microbe, parasite or virus in culture; format: cell-based, Foot-and-mouth disease virus
[3] = test system: FMDV serotype A [A/TAI/NP05/2017 (NP05)]; assay: microbe, parasite or virus in culture; format: cell-based, Foot-and-mouth disease virus; details: for EC50: read-out: Antiviral Activity (EC50) Viral Copy Number (RT-qPCR)
FMDV 3D^pol = FMDV 3D^pol (Foot-and-mouth disease virus serotype O, UniProt P03305); assay: cell-based; format: cell-based
Chain of FMDV 3D^pol (P03305 1863-2332 limits assumed): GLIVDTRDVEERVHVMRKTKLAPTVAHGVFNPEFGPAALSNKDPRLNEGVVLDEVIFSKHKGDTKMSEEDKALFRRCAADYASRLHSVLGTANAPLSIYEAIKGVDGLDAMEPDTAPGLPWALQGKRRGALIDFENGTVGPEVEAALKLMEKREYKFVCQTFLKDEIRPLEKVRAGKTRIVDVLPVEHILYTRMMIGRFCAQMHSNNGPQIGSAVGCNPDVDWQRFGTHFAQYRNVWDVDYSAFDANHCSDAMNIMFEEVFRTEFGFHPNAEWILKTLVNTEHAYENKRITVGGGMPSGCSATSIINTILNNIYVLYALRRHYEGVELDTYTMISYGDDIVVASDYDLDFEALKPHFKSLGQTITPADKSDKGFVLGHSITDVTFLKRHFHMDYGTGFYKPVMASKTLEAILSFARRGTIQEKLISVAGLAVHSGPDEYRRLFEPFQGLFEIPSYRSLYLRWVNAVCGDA

[4] = test system: human herpes simplex virus-2 (HSV-2); details: cited from earlier work
HSV-1 = details: cited from earlier work
in vitro = details: hamster
[5] = Foot-and-mouth disease virus, BHK-21, 24 h
[6] = Foot-and-mouth disease virus, BHK-21, read-out: Antiviral Activity (EC50) FMDV-Infected Cells (IPMA)

## CC(C)c1ccc2c(c1)CC[C@H]1[C@](C)(C(=O)O)CCC[C@]21C [Dehydroabietic acid]
[1]
  Antiviral activity against FMDV infection (result in words): exhibited antiviral activities
[1]; [5]
  EC50: 41.7 ± 1.62 µM
[2]; [6]
  EC50: 34 ± 1.53 µM
[3]
  Inhibition of viral load (result in words): low to moderate inhibition
[3]; [5]
  EC50: 64.5 ± 1.81 µM
FMDV 3D^pol
  IC50: > 50 µM
[4]
  Activity against HSV-2 (result in words): moderate activity
HSV-1
  Activity against HSV-1 (result in words): did not inhibit
In vitro
  CC50: 94.8 ± 1.98 µM

## C[C@@H]1CC[C@]2(C(=O)O)CC[C@]3(C)C(=CC[C@@H]4[C@@]5(C)CC[C@H](O[C@@H]6OC[C@H](O)[C@H](O)[C@H]6O)C(C)(C)[C@@H]5CC[C@]43C)[C@@H]2[C@]1(C)O [Ziyuglycoside II]
BHK-21 cells
  CC50: 57.7 ± 1.76 µM

## C=C1C(=O)[C@]23[C@H](O)[C@H]1CC[C@H]2[C@@]12CO[C@]3(O)[C@@H](O)[C@@H]1C(C)(C)CC[C@@H]2O [Oridonin]
In vitro
  CC50: 46.8 ± 1.67 µM

## C[C@@H]1C(=O)O[C@H]2C[C@@]34[C@H]5C[C@@H](C(C)(C)C)[C@]36[C@@H](OC(=O)[C@@H]6O)O[C@@]4(C(=O)O5)[C@]21O [Ginkgolide A]
In vitro
  CC50: 314.2 ± 2.5 µM

## C=C(C(=O)O)[C@H]1CC[C@H](C)[C@@H]2CC(=O)C(C)=C2C1 [Rupestonic acid]
BHK-21 cells
  CC50: 72.3 ± 1.86 µM

## C=C1C[C@@]23CC[C@H]4[C@@](C)(CCC[C@@]4(C)C(=O)O)[C@@H]2CC[C@@H]1C3 [Kaurenoic acid]
[1]
  Antiviral Activity (EC50) CPE (Crystal Violet): Not inhibit
  Antiviral activity against FMDV infection (result in words): did not exhibit antiviral activity
In vitro
  CC50: 266.1 ± 2.42 µM

## CC(C)(O)CCC(=O)[C@](C)(O)C1[C@H](O)C[C@@]2(C)[C@@H]3CC=C4[C@@H](C[C@H](O)[C@@H](O)C4(C)C)[C@]3(C)C(=O)C[C@]12C (stereo partly drawn) [Cucurbitacin IIb]
BHK-21 cells
  CC50: 240.5 ± 2.38 µM

## C[C@@H]1CC[C@]2(C(=O)O[C@@H]3O[C@H](CO)[C@@H](O)[C@H](O)[C@H]3O)CC[C@]3(C)C(=CC[C@@H]4[C@@]5(C)C[C@@H](O)[C@H](O)C(C)(C)[C@@H]5CC[C@]43C)[C@@H]2[C@]1(C)O [Rosamultin]
BHK-21 cells
  CC50: 333.2 ± 2.52 µM

## CC1=C[C@]23C(=O)[C@@H](C=C(CO)[C@@H](O)[C@]2(O)[C@H]1O)[C@H]1[C@@H](C[C@H]3C)C1(C)C [Ingenol]
In vitro
  CC50: 417.1 ± 2.62 µM

## COC(=O)C1=CC[C@@]23CC[C@@H]([C@@](C)(/C=C/C=C(\C)C(=O)O)OC2=O)[C@@]3(OC(C)=O)CC1 [Pseudolaric acid]
BHK-21 cells
  CC50: 25.3 ± 1.4 µM

## CC(C)C1=CC2=CC[C@@H]3[C@](C)(CCC[C@@]3(C)C(=O)O)[C@H]2CC1 [Abietic acid]
[1]
  Antiviral Activity (EC50) CPE (Crystal Violet): Not inhibit
  Antiviral activity against FMDV infection (result in words): did not exhibit antiviral activity
[4]
  Activity against HSV-2 (result in words): did not exhibit such activity
In vitro
  CC50: 99.2 ± 2 µM

## C=C1CC[C@H]2[C@@H](/C=C(\C)C(=O)[C@@]3(O)C[C@H](C)[C@H](O)[C@@H]3[C@@H]1O)C2(C)C [Lathyrol]
BHK-21 cells
  CC50: 314.6 ± 2.5 µM

## NC(=O)c1ncn([C@@H]2O[C@H](CO)[C@@H](O)[C@H]2O)n1 [Ribavirin, reference compound]
[1]; [5]
  EC50: 64.5 ± 1.81 µM
[2]; [6]
  EC50: 40.9 ± 1.61 µM
[3]; [5]
  EC50: 27.7 ± 1.44 µM
In vitro
  CC50: > 500 µM

## CC(C)c1ccc2c(c1O)CC[C@H]1C3=C(CC[C@]21C)C(=O)OC3 [Triptophenolide]
In vitro
  CC50: 117 ± 2.07 µM

## CCC(C)(C)C(=O)O[C@H]1C[C@@H](C)C=C2C=C[C@H](C)[C@H](CC[C@@H]3C[C@@H](O)CC(=O)O3)[C@H]21 [Simvastatin, reference compound]
In vitro
  CC50: 294.4 ± 2.47 µM

## Brusatol
[1]
  Antiviral activity against FMDV infection (result in words): exhibited antiviral activities
  EC50: 0.18 ± 0.27 µM
[2]; read-out: Antiviral Activity (EC50) FMDV-Infected Cells (IPMA)
  EC50: 0.07 µM
[3]
  Concentration range of complete inhibition of FMDV: 0.5 to 1 µM
  EC50: 0.09 µM
